Data reported in ChEMBL document CHEMBL3885881, “DrugMatrix”.

Species on record: Rattus norvegicus
Test: DrugMatrix - Regimen: Daily Repeat
Format: toxicity, organism-based, Sprague-Dawley
Design: regimen Daily Repeat, gender Male, age 6-8 weeks
Settings: in vivo, po, route oral GAVAGE, […]; for ABSOLUTE BASOPHIL / ABSOLUTE EOSINOPHIL / ABSOLUTE LYMPHOCYTE / ABSOLUTE MONOCYTE / ABSOLUTE SEGMENTED NEUTROPHIL / BASOPHIL / EOSINOPHIL / ERYTHROCYTE COUNT / HEMATOCRIT / HEMOGLOBIN / LEUKOCYTE COUNT / LYMPHOCYTE / MEAN CORPUSCULAR HEMOGLOBIN / MEAN CORPUSCULAR HEMOGLOBIN CONCENTRATION / MEAN CORPUSCULAR VOLUME / MONOCYTE / NEUTROPHIL / NUCLEATED RED BLOOD CELLS / PLATELET COUNT: tissue Blood; for ALANINE AMINOTRANSFERASE / ALBUMIN / ALKALINE PHOSPHATASE / ASPARTATE AMINOTRANSFERASE / BLOOD UREA NITROGEN / CARBON DIOXIDE / CHLORIDE / CHOLESTEROL / CREATINE PHOSPHOKINASE / CREATININE / GLUCOSE / LACTATE DEHYDROGENASE / LIPASE / PHOSPHORUS / POTASSIUM / SODIUM / TOTAL BILIRUBIN / TOTAL PROTEIN / URIC ACID: tissue Plasma
[1] = 10 mg/kg, 72 h, dose level Low, time 3 day
[2] = 10 mg/kg, 120 h, dose level Low, time 5 day
[3] = 1200 mg/kg, 72 h, dose level High, time 3 day
[4] = 1200 mg/kg, 120 h, dose level High, time 5 day

SMILES: COC(=O)Nc1nc2cc(C(=O)c3ccc(F)cc3)ccc2[nH]1 [FLUBENDAZOLE]
- ABSOLUTE BASOPHIL [1]: 0 CELLS/uL
- ABSOLUTE EOSINOPHIL [1]: 47.67 CELLS/uL
- ABSOLUTE LYMPHOCYTE [1]: 13609.33 CELLS/uL
- ABSOLUTE MONOCYTE [1]: 47.67 CELLS/uL
- ABSOLUTE SEGMENTED NEUTROPHIL [1]: 1162 CELLS/uL
- BASOPHIL [1]: 0%
- EOSINOPHIL [1]: 0.33%
- ERYTHROCYTE COUNT [1]: 5.56 x10E6/uL
- HEMATOCRIT [1]: 35.83%
- HEMOGLOBIN [1]: 14.1 G/DL
- LEUKOCYTE COUNT [1]: 14.87 x10E3/uL
- LYMPHOCYTE [1]: 91.33%
- MEAN CORPUSCULAR HEMOGLOBIN [1]: 25.37 pg
- MEAN CORPUSCULAR HEMOGLOBIN CONCENTRATION [1]: 39.33 G/DL
- MEAN CORPUSCULAR VOLUME [1]: 64.4 fL
- MONOCYTE [1]: 0.33%
- NEUTROPHIL [1]: 8%
- NUCLEATED RED BLOOD CELLS [1]: 0 /100WBC
- PLATELET COUNT [1]: 1248.33 x10E3/uL
- ALANINE AMINOTRANSFERASE [1]: 66.33 u/L
- ALBUMIN [1]: 4.3 G/DL
- ALKALINE PHOSPHATASE [1]: 384.67 u/L
- ASPARTATE AMINOTRANSFERASE [1]: 89 u/L
- BLOOD UREA NITROGEN [1]: 14.67 mg/dL
- CARBON DIOXIDE [1]: 28.67 mmol/L
- CHLORIDE [1]: 103.67 MEQ/L
- CHOLESTEROL [1]: 73 mg/dL
- CREATINE PHOSPHOKINASE [1]: 180.67 u/L
- CREATININE [1]: 0.2 mg/dL
- GLUCOSE [1]: 149.33 mg/dL
- LACTATE DEHYDROGENASE [1]: 206 u/L
- LIPASE [1]: 10.67 u/L
- PHOSPHORUS [1]: 13.07 mg/dL
- POTASSIUM [1]: 6.75 MEQ/L
- SODIUM [1]: 148 MEQ/L
- TOTAL BILIRUBIN [1]: 0.17 mg/dL
- TOTAL PROTEIN [1]: 5.6 G/DL
- URIC ACID [1]: 2.37 mg/dL
- ABSOLUTE BASOPHIL [2]: 0 CELLS/uL
- ABSOLUTE EOSINOPHIL [2]: 0 CELLS/uL
- ABSOLUTE LYMPHOCYTE [2]: 11922.67 CELLS/uL
- ABSOLUTE MONOCYTE [2]: 87 CELLS/uL
- ABSOLUTE SEGMENTED NEUTROPHIL [2]: 723.67 CELLS/uL
- BASOPHIL [2]: 0%
- EOSINOPHIL [2]: 0%
- ERYTHROCYTE COUNT [2]: 5.65 x10E6/uL
- HEMATOCRIT [2]: 34.27%
- HEMOGLOBIN [2]: 13.7 G/DL
- LEUKOCYTE COUNT [2]: 12.73 x10E3/uL
- LYMPHOCYTE [2]: 93.67%
- MEAN CORPUSCULAR HEMOGLOBIN [2]: 24.3 pg
- MEAN CORPUSCULAR HEMOGLOBIN CONCENTRATION [2]: 40.03 G/DL
- MEAN CORPUSCULAR VOLUME [2]: 60.63 fL
- MONOCYTE [2]: 0.67%
- NEUTROPHIL [2]: 5.67%
- NUCLEATED RED BLOOD CELLS [2]: 0.33 /100WBC
- PLATELET COUNT [2]: 1117 x10E3/uL
- ALANINE AMINOTRANSFERASE [2]: 57.33 u/L
- ALBUMIN [2]: 4.23 G/DL
- ALKALINE PHOSPHATASE [2]: 373.33 u/L
- ASPARTATE AMINOTRANSFERASE [2]: 85.33 u/L
- BLOOD UREA NITROGEN [2]: 15.67 mg/dL
- CARBON DIOXIDE [2]: 23.33 mmol/L
- CHLORIDE [2]: 105 MEQ/L
- CHOLESTEROL [2]: 58.67 mg/dL
- CREATINE PHOSPHOKINASE [2]: 240.33 u/L
- CREATININE [2]: 0.22 mg/dL
- GLUCOSE [2]: 160.33 mg/dL
- LACTATE DEHYDROGENASE [2]: 156.67 u/L
- LIPASE [2]: 9.33 u/L
- PHOSPHORUS [2]: 12.1 mg/dL
- POTASSIUM [2]: 7.18 MEQ/L
- SODIUM [2]: 146.47 MEQ/L
- TOTAL BILIRUBIN [2]: 0.2 mg/dL
- TOTAL PROTEIN [2]: 5.97 G/DL
- URIC ACID [2]: 1.9 mg/dL
- ABSOLUTE BASOPHIL [3]: 0 CELLS/uL
- ABSOLUTE EOSINOPHIL [3]: 0 CELLS/uL
- ABSOLUTE LYMPHOCYTE [3]: 12475.33 CELLS/uL
- ABSOLUTE MONOCYTE [3]: 43.67 CELLS/uL
- ABSOLUTE SEGMENTED NEUTROPHIL [3]: 1014.33 CELLS/uL
- BASOPHIL [3]: 0%
- EOSINOPHIL [3]: 0%
- ERYTHROCYTE COUNT [3]: 5.28 x10E6/uL
- HEMATOCRIT [3]: 33.83%
- HEMOGLOBIN [3]: 13.6 G/DL
- LEUKOCYTE COUNT [3]: 13.53 x10E3/uL
- LYMPHOCYTE [3]: 92%
- MEAN CORPUSCULAR HEMOGLOBIN [3]: 25.87 pg
- MEAN CORPUSCULAR HEMOGLOBIN CONCENTRATION [3]: 40.23 G/DL
- MEAN CORPUSCULAR VOLUME [3]: 64.27 fL
- MONOCYTE [3]: 0.33%
- NEUTROPHIL [3]: 7.67%
- NUCLEATED RED BLOOD CELLS [3]: 0.33 /100WBC
- PLATELET COUNT [3]: 1168 x10E3/uL
- ALANINE AMINOTRANSFERASE [3]: 71.67 u/L
- ALBUMIN [3]: 4.33 G/DL
- ALKALINE PHOSPHATASE [3]: 451.33 u/L
- ASPARTATE AMINOTRANSFERASE [3]: 104.67 u/L
- BLOOD UREA NITROGEN [3]: 12 mg/dL
- CARBON DIOXIDE [3]: 29.33 mmol/L
- CHLORIDE [3]: 100.67 MEQ/L
- CHOLESTEROL [3]: 60.33 mg/dL
- CREATINE PHOSPHOKINASE [3]: 400 u/L
- CREATININE [3]: 0.19 mg/dL
- GLUCOSE [3]: 163.67 mg/dL
- LACTATE DEHYDROGENASE [3]: 208.67 u/L
- LIPASE [3]: 9.67 u/L
- PHOSPHORUS [3]: 12.3 mg/dL
- POTASSIUM [3]: 6.63 MEQ/L
- SODIUM [3]: 146.5 MEQ/L
- TOTAL BILIRUBIN [3]: 0.17 mg/dL
- TOTAL PROTEIN [3]: 5.7 G/DL
- URIC ACID [3]: 1.9 mg/dL
- ABSOLUTE BASOPHIL [4]: 0 CELLS/uL
- ABSOLUTE EOSINOPHIL [4]: 0 CELLS/uL
- ABSOLUTE LYMPHOCYTE [4]: 14800.33 CELLS/uL
- ABSOLUTE MONOCYTE [4]: 0 CELLS/uL
- ABSOLUTE SEGMENTED NEUTROPHIL [4]: 966.33 CELLS/uL
- BASOPHIL [4]: 0%
- EOSINOPHIL [4]: 0%
- ERYTHROCYTE COUNT [4]: 5.99 x10E6/uL
- HEMATOCRIT [4]: 36.1%
- HEMOGLOBIN [4]: 14.47 G/DL
- LEUKOCYTE COUNT [4]: 15.77 x10E3/uL
- LYMPHOCYTE [4]: 93.67%
- MEAN CORPUSCULAR HEMOGLOBIN [4]: 24.2 pg
- MEAN CORPUSCULAR HEMOGLOBIN CONCENTRATION [4]: 40.07 G/DL
- MEAN CORPUSCULAR VOLUME [4]: 60.33 fL
- MONOCYTE [4]: 0%
- NEUTROPHIL [4]: 6.33%
- NUCLEATED RED BLOOD CELLS [4]: 0 /100WBC
- PLATELET COUNT [4]: 1290.67 x10E3/uL
- ALANINE AMINOTRANSFERASE [4]: 58.33 u/L
- ALBUMIN [4]: 4.4 G/DL
- ALKALINE PHOSPHATASE [4]: 432 u/L
- ASPARTATE AMINOTRANSFERASE [4]: 93.33 u/L
- BLOOD UREA NITROGEN [4]: 12.33 mg/dL
- CARBON DIOXIDE [4]: 21.67 mmol/L
- CHLORIDE [4]: 103.33 MEQ/L
- CHOLESTEROL [4]: 77.67 mg/dL
- CREATINE PHOSPHOKINASE [4]: 239.67 u/L
- CREATININE [4]: 0.28 mg/dL
- GLUCOSE [4]: 161 mg/dL
- LACTATE DEHYDROGENASE [4]: 157.67 u/L
- LIPASE [4]: 10 u/L
- PHOSPHORUS [4]: 11.27 mg/dL
- POTASSIUM [4]: 6.7 MEQ/L
- SODIUM [4]: 144.17 MEQ/L
- TOTAL BILIRUBIN [4]: 0.13 mg/dL
- TOTAL PROTEIN [4]: 6.23 G/DL
- URIC ACID [4]: 1.93 mg/dL
